Measurements from patent publication US11214803B2, “Modulators of YAP1 expression” (Ionis Pharmaceuticals, Inc., priority 2019, dated 2022).
Strand notation (5' to 3'): a small letter for the sugar, then the base; units joined by * are phosphorothioate-linked, units joined directly phosphodiester-linked; [ ] holds rarer units or linkages, { } end groups; capitals alone tell only the bases. k = constrained ethyl (cEt); [5mC] = 5-methylcytosine; d = 2'-deoxy (DNA)

Tests used:
Yap1 mRNA [1] = assay: Antisense inhibition of human Yap1 in A-431 cells by cEt gapmers, single dose (Example 2, RTS4814); assay type: cell-based; conditions: 3-10-3 cEt gapmers targeting SEQ ID NO.: 1, and 2
Procedure, shortened: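 A-431 cells (5,000/well) received 2,000 nM oligonucleotide by free uptake for about 48 h. Yap1 mRNA was then quantified by RT-qPCR with primer probe set RTS4814, normalized to RIBOGREEN total RNA, and reported as % of untreated control; asterisked values mark oligos inside the amplicon.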

Yap1 mRNA [2] = assay: Dose-dependent inhibition of human Yap1 in A-431 cells (Example 8, 10,000 cells per well, RTS4814); assay type: cell-based; conditions: free uptake, approximately 48 hours, RTS4814; for Yap1 mRNA, % UTC: A-431 cells, 10,000 cells per well; for IC50: A-431 cells, linear regression on log/linear plot
Procedure, shortened: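 Yap1 mRNA, normalized to RIBOGREEN total RNA and expressed as % untreated control, was read with RTS4814 about 48 h after free-uptake oligonucleotide treatment of A-431 cells at 10,000 cells/well. IC50 derived by linear regression of log/linear data.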

[3] = Table 32, Yap1 mRNA, percent of untreated control
[4] = Yap1 mRNA as percent of untreated control, A-431 cells, Table 30
[5] = Yap1 mRNA as percent of untreated control, A-431 cells, Table 31
[6] = Table 33, Yap1 mRNA, percent of untreated control

## 1074418 (kT*kT*k[5mC]*dT*dT*dT*dA*dG*dA*dG*d[5mC]*d[5mC]*dA*kA*k[5mC]*kT; antisense) [compound 1074418]
Yap1 mRNA [1]; [3]
  YAP1 (% UTC): 4 % UTC
Yap1 mRNA [2]; 31.3 nM
  Yap1 mRNA, % UTC: 55 % UTC
Yap1 mRNA [2]; 125.0 nM
  Yap1 mRNA, % UTC: 26 % UTC
Yap1 mRNA [2]; 500.0 nM
  Yap1 mRNA, % UTC: 9 % UTC
Yap1 mRNA [2]; 2000.00 nM
  Yap1 mRNA, % UTC: 4 % UTC
Yap1 mRNA [2]
  IC50: < 20 nM

## 1074450 (kA*k[5mC]*kT*dA*dA*dT*dG*dA*dT*dA*dG*d[5mC]*dA*k[5mC]*kT*kA; antisense) [compound 1074450]
Yap1 mRNA [1]; [3]
  YAP1 (% UTC): 5 % UTC
Yap1 mRNA [2]; 31.3 nM
  Yap1 mRNA, % UTC: 54 % UTC
Yap1 mRNA [2]; 125.0 nM
  Yap1 mRNA, % UTC: 22 % UTC
Yap1 mRNA [2]; 500.0 nM
  Yap1 mRNA, % UTC: 7 % UTC
Yap1 mRNA [2]; 2000.00 nM
  Yap1 mRNA, % UTC: 5 % UTC
Yap1 mRNA [2]
  IC50: < 20 nM

## 1074578 (DNA kG*k[5mC]*kT*dT*dA*dT*dT*dT*d[5mC]*dT*dG*dT*d[5mC]*kA*kT*kG) [compound 1074578]
Yap1 mRNA [1]; [3]
  YAP1 (% UTC): 8 % UTC
Yap1 mRNA [2]; 31.3 nM
  Yap1 mRNA, % UTC: 66 % UTC
Yap1 mRNA [2]; 125.0 nM
  Yap1 mRNA, % UTC: 30 % UTC
Yap1 mRNA [2]; 500.0 nM
  Yap1 mRNA, % UTC: 18 % UTC
Yap1 mRNA [2]; 2000.00 nM
  Yap1 mRNA, % UTC: 11 % UTC
Yap1 mRNA [2]
  IC50: 100 nM

## 1074480 (kT*k[5mC]*kA*dT*dT*dT*dG*d[5mC]*d[5mC]*dT*dA*dG*dG*kT*kT*k[5mC]; antisense) [compound 1074480]
Yap1 mRNA [1]; [4]
  YAP1 (% UTC): 3 % UTC
Yap1 mRNA [2]; 31.3 nM
  Yap1 mRNA, % UTC: 33 % UTC
Yap1 mRNA [2]; 125.0 nM
  Yap1 mRNA, % UTC: 9 % UTC
Yap1 mRNA [2]; 500.0 nM
  Yap1 mRNA, % UTC: 5 % UTC
Yap1 mRNA [2]; 2000.00 nM
  Yap1 mRNA, % UTC: 3 % UTC
Yap1 mRNA [2]
  IC50: < 20 nM

## 1076017 (k[5mC]*kT*kA*dA*dT*dA*dG*dG*dA*dT*dG*dG*dA*kT*kT*k[5mC]; antisense) [compound 1076017]
Yap1 mRNA [1]; [5]
  YAP1 (% UTC): 5 % UTC
Yap1 mRNA [2]; 31.3 nM
  Yap1 mRNA, % UTC: 59 % UTC
Yap1 mRNA [2]; 125.0 nM
  Yap1 mRNA, % UTC: 25 % UTC
Yap1 mRNA [2]; 500.0 nM
  Yap1 mRNA, % UTC: 9 % UTC
Yap1 mRNA [2]; 2000.00 nM
  Yap1 mRNA, % UTC: 5 % UTC
Yap1 mRNA [2]
  IC50: 30 nM

## 1074736 (kT*k[5mC]*kA*dG*dT*dA*d[5mC]*dA*dG*dA*dG*dG*dG*k[5mC]*kA*kT; antisense) [compound 1074736]
Yap1 mRNA [1]; [4]
  YAP1 (% UTC): 4 % UTC
Yap1 mRNA [2]; 31.3 nM
  Yap1 mRNA, % UTC: 34 % UTC
Yap1 mRNA [2]; 125.0 nM
  Yap1 mRNA, % UTC: 12 % UTC
Yap1 mRNA [2]; 500.0 nM
  Yap1 mRNA, % UTC: 7 % UTC
Yap1 mRNA [2]; 2000.00 nM
  Yap1 mRNA, % UTC: 7 % UTC
Yap1 mRNA [2]
  IC50: < 20 nM

## 1076115 (k[5mC]*kA*kT*dT*dA*dG*dT*dA*dA*dG*d[5mC]*dT*dG*kA*kG*kG; antisense) [compound 1076115]
Yap1 mRNA [1]; [6]
  YAP1 (% UTC): 7 % UTC
Yap1 mRNA [2]; 31.3 nM
  Yap1 mRNA, % UTC: 47 % UTC
Yap1 mRNA [2]; 125.0 nM
  Yap1 mRNA, % UTC: 17 % UTC
Yap1 mRNA [2]; 500.0 nM
  Yap1 mRNA, % UTC: 9 % UTC
Yap1 mRNA [2]; 2000.00 nM
  Yap1 mRNA, % UTC: 6 % UTC
Yap1 mRNA [2]
  IC50: < 20 nM

## 1074609 (DNA k[5mC]*kT*kA*dG*dT*dT*dA*d[5mC]*dA*dT*d[5mC]*dA*dT*k[5mC]*kT*k[5mC]) [compound 1074609]
Yap1 mRNA [1]; [5]
  YAP1 (% UTC): 8 % UTC
Yap1 mRNA [2]; 31.3 nM
  Yap1 mRNA, % UTC: 65 % UTC
Yap1 mRNA [2]; 125.0 nM
  Yap1 mRNA, % UTC: 29 % UTC
Yap1 mRNA [2]; 500.0 nM
  Yap1 mRNA, % UTC: 15 % UTC
Yap1 mRNA [2]; 2000.00 nM
  Yap1 mRNA, % UTC: 11 % UTC
Yap1 mRNA [2]
  IC50: 100 nM

## 1075088 (kA*kT*kT*dT*dA*dT*dA*dG*dT*d[5mC]*dA*dG*dG*kT*kT*k[5mC]; antisense) [compound 1075088]
Yap1 mRNA [1]; [4]
  YAP1 (% UTC): 2 % UTC
Yap1 mRNA [2]; 31.3 nM
  Yap1 mRNA, % UTC: 37 % UTC
Yap1 mRNA [2]; 125.0 nM
  Yap1 mRNA, % UTC: 9 % UTC
Yap1 mRNA [2]; 500.0 nM
  Yap1 mRNA, % UTC: 4 % UTC
Yap1 mRNA [2]; 2000.00 nM
  Yap1 mRNA, % UTC: 2 % UTC
Yap1 mRNA [2]
  IC50: < 20 nM

## 1074577 (DNA kT*kA*kT*dT*dT*d[5mC]*dT*dG*dT*d[5mC]*dA*dT*dG*k[5mC]*kA*k[5mC]) [compound 1074577]
Yap1 mRNA [1]; [5]
  YAP1 (% UTC): 3 % UTC
Yap1 mRNA [2]; 31.3 nM
  Yap1 mRNA, % UTC: 33 % UTC
Yap1 mRNA [2]; 125.0 nM
  Yap1 mRNA, % UTC: 10 % UTC
Yap1 mRNA [2]; 500.0 nM
  Yap1 mRNA, % UTC: 4 % UTC
Yap1 mRNA [2]; 2000.00 nM
  Yap1 mRNA, % UTC: 3 % UTC
Yap1 mRNA [2]
  IC50: < 20 nM

## 1075155 (kT*k[5mC]*kA*dT*dT*dA*dT*dA*dA*dT*dG*dG*dG*kA*kG*kG; antisense) [compound 1075155]
Yap1 mRNA [1]; [6]
  YAP1 (% UTC): 5 % UTC
Yap1 mRNA [2]; 31.3 nM
  Yap1 mRNA, % UTC: 51 % UTC
Yap1 mRNA [2]; 125.0 nM
  Yap1 mRNA, % UTC: 15 % UTC
Yap1 mRNA [2]; 500.0 nM
  Yap1 mRNA, % UTC: 6 % UTC
Yap1 mRNA [2]; 2000.00 nM
  Yap1 mRNA, % UTC: 4 % UTC
Yap1 mRNA [2]
  IC50: < 20 nM

## 1074737 (kT*kT*k[5mC]*dA*dG*dG*dT*d[5mC]*dA*dG*dT*dA*d[5mC]*kA*kG*kA; antisense) [compound 1074737]
Yap1 mRNA [1]; [5]
  YAP1 (% UTC): 7 % UTC
Yap1 mRNA [2]; 31.3 nM
  Yap1 mRNA, % UTC: 50 % UTC
Yap1 mRNA [2]; 125.0 nM
  Yap1 mRNA, % UTC: 21 % UTC
Yap1 mRNA [2]; 500.0 nM
  Yap1 mRNA, % UTC: 8 % UTC
Yap1 mRNA [2]; 2000.00 nM
  Yap1 mRNA, % UTC: 6 % UTC
Yap1 mRNA [2]
  IC50: < 20 nM

## 1075792 (kG*kA*kT*dT*dA*dG*dA*dA*dA*dG*dT*dG*d[5mC]*k[5mC]*kT*kT; antisense) [compound 1075792]
Yap1 mRNA [1]; [4]
  YAP1 (% UTC): 6 % UTC
Yap1 mRNA [2]; 31.3 nM
  Yap1 mRNA, % UTC: 79 % UTC
Yap1 mRNA [2]; 125.0 nM
  Yap1 mRNA, % UTC: 41 % UTC
Yap1 mRNA [2]; 500.0 nM
  Yap1 mRNA, % UTC: 15 % UTC
Yap1 mRNA [2]; 2000.00 nM
  Yap1 mRNA, % UTC: 10 % UTC
Yap1 mRNA [2]
  IC50: 100 nM

## 1075699 (kG*kA*kT*dT*dT*dA*dT*dA*d[5mC]*dT*d[5mC]*dA*dG*kG*kT*kT; antisense) [compound 1075699]
Yap1 mRNA [1]; [6]
  YAP1 (% UTC): 4 % UTC
Yap1 mRNA [2]; 31.3 nM
  Yap1 mRNA, % UTC: 26 % UTC
Yap1 mRNA [2]; 125.0 nM
  Yap1 mRNA, % UTC: 6 % UTC
Yap1 mRNA [2]; 500.0 nM
  Yap1 mRNA, % UTC: 3 % UTC
Yap1 mRNA [2]; 2000.00 nM
  Yap1 mRNA, % UTC: 2 % UTC
Yap1 mRNA [2]
  IC50: < 20 nM

## 1074448 (kT*kA*kA*dT*dG*dA*dT*dA*dG*d[5mC]*dA*d[5mC]*dT*kA*kG*kG; antisense) [compound 1074448]
Yap1 mRNA [1]; [4]
  YAP1 (% UTC): 3 % UTC
Yap1 mRNA [2]; 31.3 nM
  Yap1 mRNA, % UTC: 54 % UTC
Yap1 mRNA [2]; 125.0 nM
  Yap1 mRNA, % UTC: 13 % UTC
Yap1 mRNA [2]; 500.0 nM
  Yap1 mRNA, % UTC: 4 % UTC
Yap1 mRNA [2]; 2000.00 nM
  Yap1 mRNA, % UTC: 3 % UTC
Yap1 mRNA [2]
  IC50: < 20 nM

## 1074675 (antisense kA*kA*kA*dT*dT*dA*dT*dA*dG*dG*d[5mC]*dA*d[5mC]*kT*k[5mC]*k[5mC]) [compound 1074675]
Yap1 mRNA [1]; [6]
  YAP1 (% UTC): 6 % UTC
Yap1 mRNA [2]; 31.3 nM
  Yap1 mRNA, % UTC: 47 % UTC
Yap1 mRNA [2]; 125.0 nM
  Yap1 mRNA, % UTC: 18 % UTC
Yap1 mRNA [2]; 500.0 nM
  Yap1 mRNA, % UTC: 6 % UTC
Yap1 mRNA [2]; 2000.00 nM
  Yap1 mRNA, % UTC: 3 % UTC
Yap1 mRNA [2]
  IC50: < 20 nM

## 1076369 (antisense kT*kA*kT*dT*d[5mC]*dG*dG*dT*dA*dT*dT*dT*dT*k[5mC]*kT*kA) [compound 1076369]
Yap1 mRNA [1]; [5]
  YAP1 (% UTC): 2 % UTC
Yap1 mRNA [2]; 31.3 nM
  Yap1 mRNA, % UTC: 60 % UTC
Yap1 mRNA [2]; 125.0 nM
  Yap1 mRNA, % UTC: 20 % UTC
Yap1 mRNA [2]; 500.0 nM
  Yap1 mRNA, % UTC: 6 % UTC
Yap1 mRNA [2]; 2000.00 nM
  Yap1 mRNA, % UTC: 3 % UTC
Yap1 mRNA [2]
  IC50: < 20 nM
